Results from PMC10584170, “Machine learning-based phenotypic imaging to characterise the targetable biology of Plasmodium falciparum male gametocytes for the development of transmission-blocking antimalarials” (PLOS Pathogens, 2023).
Where two headings read alike, the source gives them in different places.

Assays:
[1] = test system: P. falciparum female gametocytes; test: P. falciparum Dual Gamete Formation Assay (PfDGFA), female readout (Pfs25-positive female gametes); format: cell-based, Plasmodium falciparum NF54
In short: (§1)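 Male and female gamete formation were quantified by microscopy image analysis following 24 h incubation of mature NF54 gametocytes with compound and activation at 28°C with xanthurenic acid.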

[2] = test system: P. falciparum male gametocytes; test: P. falciparum Dual Gamete Formation Assay (PfDGFA), male readout (exflagellation); format: cell-based, Plasmodium falciparum NF54; conditions: for Activity: hit = >50% inhibition in male or female readout in at least 3 replicates, 0 = no class assigned
In short: as §1

[3] = PfDGFA at 2µM, 24h preincubation with gametocytes, average of replicates
[4] = PfDGFA at 2µM, 24h preincubation with gametocytes, replicate R1
[5] = PfDGFA at 2µM, 24h preincubation with gametocytes, replicate R3
[6] = PfDGFA at 2µM, 24h preincubation with gametocytes, replicate R4
[7] = number of replicates with >50% inhibition in the female readout, 2µM
[8] = number of replicates with >50% inhibition in the male readout, 2µM
[9] = 2µM, 24h preincubation with gametocytes prior to induction of gametogenesis, average of replicates
[10] = 2µM, 24h preincubation with gametocytes prior to induction of gametogenesis, replicate R1
[11] = 2µM, 24h preincubation with gametocytes prior to induction of gametogenesis, replicate R3
[12] = 2µM, 24h preincubation with gametocytes prior to induction of gametogenesis, replicate R4
[13] = 2µM, 24h preincubation, hits selected on >50% inhibition in the female readout across replicates
[14] = 2µM, 24h preincubation, hits selected on >50% inhibition in the male readout across replicates
[15] = PfDGFA at 2µM, 24h preincubation
[16] = PfDGFA at 2µM, 24h preincubation with gametocytes prior to induction of gametogenesis, replicate R1
[17] = PfDGFA at 2µM, 24h preincubation with gametocytes prior to induction of gametogenesis, replicate R3
[18] = PfDGFA at 2µM, 24h preincubation with gametocytes prior to induction of gametogenesis, replicate R4
[19] = PfDGFA at 2µM, 24h preincubation, average of replicates

SMILES | Average inhibition female (%) [1, 9] | % inhibition female (individual replicates) R1 [1, 10] | % inhibition female (individual replicates) R3 [1, 11] | % inhibition female (individual replicates) R4 [1, 12] | HitlevelF [1, 13] | Average inhibition male (%) [2, 9] | % inhibition male (individual replicates) R1 [2, 10] | % inhibition male (individual replicates) R3 [2, 11] | % inhibition male (individual replicates) R4 [2, 12] | HitlevelM [2, 14] | Activity [2, 15] | also measured
CC(C)CNCc1ccc(-c2cccc(CN(CCN(C)C)C(=O)CCC3CCCC3)c2)cc1.O=C(O)C(F)(F)F [TCMDC-140553] | – | – | – | – | – | – | – | – | – | – | – | Average inhibition female (%) [1, 3]: 30.3%; % inhibition female (individual replicates) R1 [1, 4]: 23.2%; % inhibition female (individual replicates) R3 [1, 5]: 20.6%; % inhibition female (individual replicates) R4 [1, 6]: 42.3%; HitlevelF [1, 7]: 0; Average inhibition male (%) [2, 3]: 71.6%; % inhibition male (individual replicates) R1 [2, 4]: 58.5%; % inhibition male (individual replicates) R3 [2, 5]: 51.6%; % inhibition male (individual replicates) R4 [2, 6]: 94.9%; HitlevelM [2, 8]: 4
CC(C)(CN)c1nc(-c2ccc(Br)c(O)c2)c(-c2ccncc2)[nH]1.Cl [TCMDC-140680] | – | – | – | – | – | – | – | – | – | – | – | Selectivity ratio F ([1]; HepG2 Tox50 versus female IC50): 175.05; inhibition at 2 µM ([1]; Plasmodium falciparum, PfDGFA at 2µM, 24h preincubation with gametocytes, average of replicates, read-out: Average inhibition female (%)): 96%; inhibition at 2 µM ([1]; Plasmodium falciparum, PfDGFA at 2µM, 24h preincubation with gametocytes, replicate R1, read-out: % inhibition female (individual replicates) R1): 91.3%; inhibition at 2 µM ([1]; Plasmodium falciparum, PfDGFA at 2µM, 24h preincubation with gametocytes, replicate R2, read-out: % inhibition female (individual replicates) R2): 95.4%; inhibition at 2 µM ([1]; Plasmodium falciparum, PfDGFA at 2µM, 24h preincubation with gametocytes, replicate R3, read-out: % inhibition female (individual replicates) R3): 104%; inhibition at 2 µM ([1]; Plasmodium falciparum, PfDGFA at 2µM, 24h preincubation with gametocytes, replicate R4, read-out: % inhibition female (individual replicates) R4): 93%; IC50 ([1]; Plasmodium falciparum, PfDGFA, 24 h incubation with gametocytes before induction, female gamete readout, read-out: Female IC50): 570 nM; HitlevelF [1, 7]: 4; Selectivity Ratio M ([2]; HepG2 Tox50 versus male IC50): 67.46; inhibition at 2 µM ([2]; Plasmodium falciparum, PfDGFA at 2µM, 24h preincubation with gametocytes, average of replicates, read-out: Average inhibition male (%)): 80.7%; inhibition at 2 µM ([2]; Plasmodium falciparum, PfDGFA at 2µM, 24h preincubation with gametocytes, replicate R1, read-out: % inhibition male (individual replicates) R1): 55.5%; inhibition at 2 µM ([2]; Plasmodium falciparum, PfDGFA at 2µM, 24h preincubation with gametocytes, replicate R2, read-out: % inhibition male (individual replicates) R2): 95.4%; inhibition at 2 µM ([2]; Plasmodium falciparum, PfDGFA at 2µM, 24h preincubation with gametocytes, replicate R3, read-out: % inhibition male (individual replicates) R3): 94%; inhibition at 2 µM ([2]; Plasmodium falciparum, PfDGFA at 2µM, 24h preincubation with gametocytes, replicate R4, read-out: % inhibition male (individual replicates) R4): 77.9%; IC50 ([2]; Plasmodium falciparum, PfDGFA, 24 h incubation with gametocytes before induction, exflagellation readout, read-out: Male IC50): 1480 nM; HitlevelM [2, 8]: 4
CN1CCC(N2CCN(CCOc3cc(NC(=O)/C=C/c4ccccc4Cl)ccc3Br)CC2)CC1.O=C(O)C(=O)O [TCMDC-140962] | 8.6% | 14.8% | -6.3% | 11.7% | 0 | 15.3% | 25.8% | -8.5% | 17.6% | 0 | 0 | –
COc1cc2c(cc1OCCN1CCC(N)CC1)N(C(=O)/C=C/c1ccccc1Cl)CC2.Cl [TCMDC-140969] | 11.8% | 7.5% | 2.9% | 33.3% | 0 | 28.3% | 26.3% | 11.1% | 42.2% | 0 | 0 | –
CC1(CCN2CCC(c3c[nH]c4cnccc34)CC2)CCCc2c(Br)cccc2C1=O.Cl (stereo not drawn) [TCMDC-141171] | 14.9% | 12.8% | 15.8% | 19.7% | 0 | 55.1% | 49.5% | – | 49.8% | 1 | 0 | –
CC1(CCCCN2CCC(c3c[nH]c4cnccc34)CC2)C(=O)Nc2cccc(Cl)c21 (stereo not drawn) [TCMDC-141177] | 23.5% | 22.1% | 12.9% | 47.7% | – | 42.5% | 42.7% | 28.4% | 48.2% | – | – | HitlevelF ([1]; 2µM, 24h preincubation, number of replicates with >50% inhibition in the female readout): 0; HitlevelM ([2]; 2µM, 24h preincubation, number of replicates with >50% inhibition in the male readout): 1
O=C(O)C(F)(F)F.O=[N+]([O-])c1cccc(CNCC2CCN(Cc3ccc(-c4ccccc4)cc3)CC2)c1 [TCMDC-141208] | 6.3% | -1.5% | 6.7% | 13.0% | 0 | 36.0% | 32.1% | 8.2% | 53.6% | 2 | 0 | –
Cc1cc(F)ccc1-c1nc(Nc2ccncc2)c2ccn(C)c2n1 [TCMDC-141231] | – | – | – | – | – | – | – | – | – | – | – | % inhibition female (individual replicates) R1 [1, 16]: 10.5%; % inhibition female (individual replicates) R3 [1, 17]: -5.5%; % inhibition female (individual replicates) R4 [1, 18]: -9.9%; Average inhibition female (%) [1, 19]: -2.8%; % inhibition male (individual replicates) R1 [2, 16]: -14.5%; % inhibition male (individual replicates) R3 [2, 17]: -17.7%; % inhibition male (individual replicates) R4 [2, 18]: 32.9%; Average inhibition male (%) [2, 19]: -2.0%
CCCC(C)NC(=O)[C@H]1CNCCN1C(=O)CCCc1ccccc1.O=C(O)C(F)(F)F (stereo partly drawn) [TCMDC-141270] | – | – | – | – | – | – | – | – | – | – | – | % inhibition female (individual replicates) R1 [1, 16]: 8.3%; % inhibition female (individual replicates) R3 [1, 17]: -18.4%; % inhibition female (individual replicates) R4 [1, 18]: -2.2%; Average inhibition female (%) [1, 19]: 0.7%; % inhibition male (individual replicates) R1 [2, 16]: -7.3%; % inhibition male (individual replicates) R3 [2, 17]: -0.8%; % inhibition male (individual replicates) R4 [2, 18]: 2.9%; Average inhibition male (%) [2, 19]: -3.3%
ON=C1CCc2cc(-c3cc(-c4ccc(OC5CCNCC5)cc4)oc3-c3ccncc3)ccc21 [TCMDC-141381] | – | – | – | – | – | – | – | – | – | – | – | % inhibition female (individual replicates) R1 [1, 16]: 10.4%; % inhibition female (individual replicates) R3 [1, 17]: -25.1%; % inhibition female (individual replicates) R4 [1, 18]: 18.2%; Average inhibition female (%) [1, 19]: 2.6%; % inhibition male (individual replicates) R1 [2, 16]: 12.4%; % inhibition male (individual replicates) R3 [2, 17]: 2.8%; % inhibition male (individual replicates) R4 [2, 18]: 13.5%; Average inhibition male (%) [2, 19]: 7.3%
CN(C)CCN(Cc1ccc(-c2ccc(CNCCc3ccccc3)cc2)nc1)C(=O)CCC1CCCC1.O=C(O)C(F)(F)F [TCMDC-141402] | 13.9% | 22.3% | 7.4% | 7.2% | 0 | 46.5% | 41.7% | 6.4% | 71.6% | 2 | 0 | –
